# Experimental data reported in PMC8161026, “Synthesis and Anticancer Activity Evaluation of 5-[2-Chloro-3-(4-nitrophenyl)-2-propenylidene]-4-thiazolidinones” (Molecules, 2021).
# Tests used:
# SR [1] = experiment: cells; details: Homo sapiens, 48 h; for CC50: read-out: LC50
# PC-3 = PC-3 (Prostate Cancer), 48 h, SRB
# DU-145 [2] = experiment: cells; details: Homo sapiens, DU-145, 48 h; for CC50: read-out: LC50
# SN12C [3] = details: SN12C (Renal Cancer), 48 h, SRB
# ACHN = experiment: NCI DTP 60 cell line screen, SRB; details: 48 h; for TGI: ACHN (Renal Cancer), SRB; for GI50 / CC50: Homo sapiens, ACHN; for CC50: read-out: LC50
# BT-549 = experiment: NCI DTP 60 cell line screen, SRB; details: for TGI: BT-549 (Breast Cancer), 48 h, SRB; for GI50 / CC50: Homo sapiens, BT-549, 48 h; for CC50: read-out: LC50
# HL-60(TB) [4] = experiment: cells; details: Homo sapiens, HL-60, 48 h
# SNB-75 = SNB-75 (CNS Cancer), 48 h, SRB
# NCI-H460 = experiment: cells; details: Homo sapiens, NCI-H460, 48 h; for CC50: read-out: LC50
# MALME-3M = experiment: NCI DTP 60 cell line screen, SRB; details: 48 h; for GI50 / CC50: Homo sapiens, Malme-3M; for CC50: read-out: LC50; for TGI: MALME-3M (Melanoma), SRB
# EKVX = experiment: cells; details: Homo sapiens, 48 h; for CC50: read-out: LC50
# HL-60(TB) [5] = system: HL-60(TB)
# SR [6] = details: for TGI: SR (Leukemia), 48 h, SRB
# 786-0 = experiment: cells; details: Homo sapiens, 786-0, 48 h; for CC50: read-out: LC50
# LOX IMVI = experiment: cells; details: Homo sapiens, 48 h; for CC50: read-out: LC50
# CAKI-1 = experiment: NCI DTP 60 cell line screen, SRB; details: for TGI: CAKI-1 (Renal Cancer), 48 h, SRB; for GI50 / CC50: Homo sapiens, CAKI-1, 48 h; for CC50: read-out: LC50
# M14 = experiment: NCI DTP 60 cell line screen, SRB; details: for GI50 / CC50: Homo sapiens, M14, 48 h; for CC50: read-out: LC50; for TGI: M14 (Melanoma), 48 h, SRB
# DU-145 [7] = details: DU-145 (Prostate Cancer), 48 h, SRB
# SK-OV-3 = experiment: NCI DTP 60 cell line screen, SRB; details: for GI50 / CC50: Homo sapiens, SK-OV-3, 48 h; for CC50: read-out: LC50; for TGI: SK-OV-3 (Ovarian Cancer), 48 h, SRB
# SW-620 [8] = experiment: cells; details: Homo sapiens, SW-620, 48 h; for CC50: read-out: LC50
# NCI/ADR-Res = experiment: NCI DTP 60 cell line screen, SRB; details: 48 h
# SN12C [9] = experiment: cells; details: Homo sapiens, 48 h; for CC50: read-out: LC50
# A549/ATCC = experiment: cells; details: Homo sapiens, A549, 48 h; for CC50: read-out: LC50
# OVCAR-4 = experiment: NCI DTP 60 cell line screen, SRB; details: for GI50 / CC50: Homo sapiens, OVCAR-4, 48 h; for CC50: read-out: LC50; for TGI: OVCAR-4 (Ovarian Cancer), 48 h, SRB
# SK-MEL-5 = experiment: NCI DTP 60 cell line screen, SRB; details: for GI50 / CC50: Homo sapiens, SK-MEL-5, 48 h; for CC50: read-out: LC50; for TGI: SK-MEL-5 (Melanoma), 48 h, SRB
# MOLT-4 = experiment: cells; details: Homo sapiens, MOLT-4, 48 h; for CC50: read-out: LC50
# KM12 = KM12 (Colon Cancer), 48 h, SRB
# HOP-62 [10] = details: HOP-62 (Non-Small Cell Lung Cancer), 48 h, SRB
# SW-620 [11] = details: SW-620 (Colon Cancer), 48 h, SRB
# HT-29 = experiment: NCI DTP 60 cell line screen, SRB; details: for TGI: HT-29 (Colon Cancer), 48 h, SRB; for GI50 / CC50: Homo sapiens, HT-29, 48 h; for CC50: read-out: LC50
# SK-MEL-2 = SK-MEL-2 (Melanoma), 48 h, SRB
# HOP-62 [12] = experiment: cells; details: Homo sapiens, HOP-62, 48 h; for CC50: read-out: LC50
# NCI-H226 = experiment: NCI DTP 60 cell line screen, SRB
# HS 578T = experiment: NCI DTP 60 cell line screen, SRB; details: 48 h
structure (smiles),measurement,setting,value
"O=C(O)CCN1C(=O)/C(=C/C(Cl)=C/c2ccc([N+](=O)[O-])cc2)SC1=S [Compound 2h, 3-{5-[(Z,2Z)-2-Chloro-3-(4-nitrophenyl)-2-propenylidene]-4-oxo-2-thioxothiazolidin-3-yl}propanoic acid]",GI50,SR [1],< 0.01 µM
same,CC50,SR [1],> 100 µM
same,TGI,PC-3,13.7 µM
same,GI50,DU-145 [2],0.421 µM
same,CC50,DU-145 [2],52.3 µM
same,TGI,SN12C [3],2.99 µM
same,TGI,ACHN,2.42 µM
same,GI50,ACHN,1.02 µM
same,CC50,ACHN,5.76 µM
same,TGI,BT-549,0.920 µM
same,GI50,BT-549,0.247 µM
same,CC50,BT-549,36.3 µM
same,GI50,HL-60(TB) [4],0.347 µM
same,CC50,HL-60(TB) [4]; read-out: LC50,> 100 µM
same,TGI,SNB-75,46.0 µM
same,GI50,NCI-H460,0.804 µM
same,CC50,NCI-H460,> 100 µM
same,GI50,MALME-3M,9.7 µM
same,CC50,MALME-3M,> 100 µM
same,TGI,MALME-3M,61.9 µM
same,GI50,EKVX,0.334 µM
same,CC50,EKVX,55.6 µM
same,TI (Therapeutic Index),HL-60(TB) [5]; GI50 (normal blood lymphocyte)/GI50 (HL-60(TB)),157.18
same,TGI,"HL-60(TB) [5]; HL-60(TB) (Leukemia), 48 h, SRB",1.87 µM
same,TGI,SR [6],1.41 µM
same,GI50,786-0,1.13 µM
same,CC50,786-0,5.42 µM
same,GI50,LOX IMVI,0.161 µM
same,CC50,LOX IMVI,> 100 µM
same,TGI,CAKI-1,6.14 µM
same,GI50,CAKI-1,0.485 µM
same,CC50,CAKI-1,47.1 µM
same,GI50,M14,1.66 µM
same,CC50,M14,7.74 µM
same,TGI,M14,3.58 µM
same,TGI,DU-145 [7],3.48 µM
same,GI50,SK-OV-3,6.83 µM
same,CC50,SK-OV-3,77.6 µM
same,TGI,SK-OV-3,27.4 µM
same,GI50,SW-620 [8],< 0.01 µM
same,CC50,SW-620 [8],> 100 µM
same,GI50,"NCI/ADR-Res; Homo sapiens, NCI/ADR-RES",0.407 µM
same,CC50,"NCI/ADR-Res; Homo sapiens, NCI/ADR-RES, read-out: LC50",6.43 µM
same,TGI,"NCI/ADR-Res; NCI/ADR-Res (Breast Cancer), SRB",2.11 µM
same,GI50,SN12C [9],1.05 µM
same,CC50,SN12C [9],8.48 µM
same,GI50,A549/ATCC,1.76 µM
same,CC50,A549/ATCC,> 100 µM
same,GI50,OVCAR-4,2.66 µM
same,CC50,OVCAR-4,56.2 µM
same,TGI,OVCAR-4,14.9 µM
same,GI50,SK-MEL-5,0.0193 µM
same,CC50,SK-MEL-5,1.88 µM
same,TGI,SK-MEL-5,0.0849 µM
same,GI50,MOLT-4,0.016 µM
same,CC50,MOLT-4,> 100 µM
same,TGI,KM12,29.5 µM
same,TGI,HOP-62 [10],19.9 µM
same,TGI,SW-620 [11],3.25 µM
same,TGI,HT-29,2.77 µM
same,GI50,HT-29,1.25 µM
same,CC50,HT-29,> 100 µM
same,TGI,SK-MEL-2,4.93 µM
same,GI50,HOP-62 [12],6.54 µM
same,CC50,HOP-62 [12],52.8 µM
"O=C(O)C(Cc1ccccc1)N1C(=O)/C(=C/C(Cl)=C/c2ccc([N+](=O)[O-])cc2)SC1=S (stereo not shown) [Compound 2j, 2-{5-[(Z,2Z)-2-Chloro-3-(4-nitrophenyl)-2-propenylidene]-4-oxo-2-thioxothiazolidin-3-yl}-3-phenylpropanoic acid]",GI50,SR [1],2.45 µM
same,CC50,SR [1],> 100 µM
same,TGI,PC-3,7.98 µM
same,GI50,DU-145 [2],2.06 µM
same,CC50,DU-145 [2],11.7 µM
same,TGI,SN12C [3],> 100 µM
same,TGI,ACHN,3.30 µM
same,GI50,ACHN,1.8 µM
same,CC50,ACHN,6.04 µM
same,TGI,BT-549,4.17 µM
same,GI50,BT-549,1.79 µM
same,CC50,BT-549,> 100 µM
same,GI50,"NCI-H226; Homo sapiens, NCI-H226, 48 h",1.58 µM
same,CC50,"NCI-H226; Homo sapiens, NCI-H226, 48 h, read-out: LC50",6.76 µM
same,TGI,"NCI-H226; NCI-H226 (Non-Small Cell Lung Cancer), 48 h, SRB",3.27 µM
same,TGI,SNB-75,5.37 µM
same,GI50,NCI-H460,2.19 µM
same,CC50,NCI-H460,> 100 µM
same,GI50,MALME-3M,2.13 µM
same,CC50,MALME-3M,> 100 µM
same,TGI,MALME-3M,4.82 µM
same,GI50,EKVX,2.59 µM
same,CC50,EKVX,> 100 µM
same,TI (Therapeutic Index),SR [6]; GI50 (normal blood lymphocyte)/GI50 (SR),19.99
same,TGI,SR [6],> 100 µM
same,GI50,786-0,2.1 µM
same,CC50,786-0,> 100 µM
same,TGI,"HS 578T; HS 578T (Breast Cancer), SRB",> 100 µM
same,GI50,"HS 578T; Homo sapiens, Hs-578T",4.37 µM
same,CC50,"HS 578T; Homo sapiens, Hs-578T, read-out: LC50",> 100 µM
same,GI50,LOX IMVI,1.64 µM
same,CC50,LOX IMVI,6.46 µM
same,TGI,CAKI-1,5.09 µM
same,GI50,CAKI-1,2.28 µM
same,CC50,CAKI-1,16.7 µM
same,GI50,M14,2.53 µM
same,CC50,M14,> 100 µM
same,TGI,M14,> 100 µM
same,TGI,DU-145 [7],4.56 µM
same,GI50,SK-OV-3,4.13 µM
same,CC50,SK-OV-3,> 100 µM
same,TGI,SK-OV-3,> 100 µM
same,GI50,SW-620 [8],2.1 µM
same,CC50,SW-620 [8],> 100 µM
same,GI50,SN12C [9],2.84 µM
same,CC50,SN12C [9],> 100 µM
same,GI50,A549/ATCC,3.46 µM
same,CC50,A549/ATCC,> 100 µM
same,GI50,OVCAR-4,3.21 µM
same,CC50,OVCAR-4,> 100 µM
same,TGI,OVCAR-4,> 100 µM
same,GI50,SK-MEL-5,1.68 µM
same,CC50,SK-MEL-5,5.6 µM
same,TGI,SK-MEL-5,3.06 µM
same,GI50,MOLT-4,3.14 µM
same,CC50,MOLT-4,> 100 µM
same,TGI,KM12,4.35 µM
same,TGI,HOP-62 [10],6.75 µM
same,TGI,SW-620 [11],4.39 µM
same,TGI,HT-29,8.47 µM
same,GI50,HT-29,2.84 µM
same,CC50,HT-29,> 100 µM
same,TGI,SK-MEL-2,4.50 µM
same,GI50,HOP-62 [12],2.31 µM
same,CC50,HOP-62 [12],> 100 µM
